What was measured:
Format in all cases: cell-based
[1] = tested on: M14; assay: NCI human tumor cell panel: M14 (Melanoma); settings: M14, Melanoma
[2] = tested on: SN12C; assay: NCI human tumor cell panel: SN12C (Renal Cancer); settings: Renal Cancer
[3] = tested on: DU-145; assay: NCI human tumor cell panel: DU-145 (Prostate Cancer); settings: DU-145, Prostate Cancer
[4] = tested on: HCT-15; assay: NCI human tumor cell panel: HCT-15 (Colon Cancer); settings: HCT-15, Colon Cancer
[5] = tested on: SNB-75; assay: NCI human tumor cell panel: SNB-75 (CNS Cancer); settings: SNB-75, CNS Cancer
[6] = tested on: NCI-H23; assay: NCI human tumor cell panel: NCI-H23 (Non-Small Cell Lung Cancer); settings: NCI-H23, Non-Small Cell Lung Cancer
[7] = tested on: SF-268; assay: NCI human tumor cell panel: SF-268 (CNS Cancer); settings: SF-268, CNS Cancer
[8] = tested on: CCRF-CEM; assay: NCI human tumor cell panel: CCRF-CEM (Leukemia); settings: Leukemia
[9] = tested on: CAKI-1; assay: NCI human tumor cell panel: CAKI-1 (Renal Cancer); settings: CAKI-1, Renal Cancer
[10] = tested on: HOP-62; assay: NCI human tumor cell panel: HOP-62 (Non-Small Cell Lung Cancer); settings: HOP-62, Non-Small Cell Lung Cancer
[11] = tested on: MDA-N; assay: NCI human tumor cell panel: MDA-N (Breast Cancer); settings: Breast Cancer
[12] = tested on: HL-60(TB); assay: NCI human tumor cell panel: HL-60(TB) (Leukemia); settings: Leukemia, read-out: Log10 GI50 (converted)
[13] = tested on: HT29; assay: NCI human tumor cell panel: HT29 (Colon Cancer); settings: HT-29, HT29, Colon Cancer
[14] = tested on: COLO 205; assay: NCI human tumor cell panel: COLO 205 (Colon Cancer); settings: COLO 205, Colon Cancer
[15] = tested on: T-47D; assay: NCI human tumor cell panel: T-47D (Breast Cancer); settings: T47D, Breast Cancer
[16] = tested on: SK-MEL-2; assay: NCI human tumor cell panel: SK-MEL-2 (Melanoma); settings: SK-MEL-2, Melanoma
[17] = tested on: U251; assay: NCI human tumor cell panel: U251 (CNS Cancer); settings: U-251, U251, CNS Cancer
[18] = tested on: MDA-MB-231/ATCC; assay: NCI human tumor cell panel: MDA-MB-231/ATCC (Breast Cancer); settings: Homo sapiens, MDA-MB-231, MDA-MB-231/ATCC, Breast Cancer
[19] = tested on: SK-OV-3; assay: NCI human tumor cell panel: SK-OV-3 (Ovarian Cancer); settings: SK-OV-3, Ovarian Cancer
[20] = tested on: HCC-2998; assay: NCI human tumor cell panel: HCC-2998 (Colon Cancer); settings: HCC-2998, Colon Cancer
[21] = tested on: MCF7; assay: NCI human tumor cell panel: MCF7 (Breast Cancer); settings: MCF7, Breast Cancer
[22] = tested on: UACC-62; assay: NCI human tumor cell panel: UACC-62 (Melanoma); settings: UACC-62, Melanoma
[23] = tested on: SW-620; assay: NCI human tumor cell panel: SW-620 (Colon Cancer); settings: SW-620, Colon Cancer
[24] = tested on: MOLT-4; assay: NCI human tumor cell panel: MOLT-4 (Leukemia); settings: MOLT-4, Leukemia
[25] = tested on: HCT-116; assay: NCI human tumor cell panel: HCT-116 (Colon Cancer); settings: HCT-116, Colon Cancer
[26] = tested on: RXF-393; assay: NCI human tumor cell panel: RXF-393 (Renal Cancer); settings: RXF-393, Renal Cancer
[27] = tested on: NCI-H226; assay: NCI human tumor cell panel: NCI-H226 (Non-Small Cell Lung Cancer); settings: NCI-H226, Non-Small Cell Lung Cancer
[28] = tested on: SK-MEL-5; assay: NCI human tumor cell panel: SK-MEL-5 (Melanoma); settings: SK-MEL-5, Melanoma
[29] = read-out: Log10 GI50 (converted)
[30] = read-out: Log10 TGI (converted)

For `O=Cc1ccc(-c2ccc(-c3ccc(C=O)s3)[se]2)s1` [NSC 675345], the GI50 [1, 29] was > 100 µM, the IC (TGI) [1, 30] was > 100 µM and the GI50 [2, 29] was 0.257 µM. For the same compound, the IC (TGI) [2, 30] was 1.66 µM, the GI50 [3, 29] was > 100 µM and the IC (TGI) [3, 30] was > 100 µM. The GI50 [4, 29] was > 100 µM, the IC (TGI) [4, 30] was > 100 µM and the GI50 [5, 29] was 52.5 µM. For the same compound, the IC (TGI) [5, 30] was > 100 µM, the GI50 [6, 29] was 21.9 µM and the IC (TGI) [6, 30] was > 100 µM. The GI50 [7, 29] was > 100 µM, the IC (TGI) [7, 30] was > 100 µM and the GI50 [8, 29] was > 100 µM. For the same compound, the IC (TGI) [8, 30] was > 100 µM, the GI50 [9, 29] was 32.4 µM and the IC (TGI) [9, 30] was > 100 µM. For the same compound, the GI50 [10, 29] was 47.9 µM, the IC (TGI) [10, 30] was > 100 µM and the GI50 [11, 29] was > 100 µM. The IC (TGI) [11, 30] was > 100 µM, the GI50 [12] was > 100 µM and the GI50 [13, 29] was > 100 µM. The IC (TGI) [13, 30] was > 100 µM, the GI50 [14, 29] was 33.9 µM and the IC (TGI) [14, 30] was > 100 µM. The GI50 [15, 29] was 79.4 µM, the IC (TGI) [15, 30] was > 100 µM and the GI50 [16, 29] was 77.6 µM. The IC (TGI) [16, 30] was > 100 µM, the GI50 [17, 29] was 2.29 µM and the IC (TGI) [17, 30] was 21.4 µM. For the same compound, the GI50 [18, 29] was 18.2 µM, the IC (TGI) [18, 30] was > 100 µM and the GI50 [19, 29] was 55 µM. The IC (TGI) [19, 30] was > 100 µM, the GI50 [20, 29] was 2.34 µM and the IC (TGI) [20, 30] was 6.92 µM. For the same compound, the GI50 [21, 29] was 0.724 µM, the IC (TGI) [21, 30] was 5.62 µM and the GI50 [22, 29] was 0.347 µM. The IC (TGI) [22, 30] was 2.82 µM, the GI50 [23, 29] was 38 µM and the IC (TGI) [23, 30] was > 100 µM. The GI50 [24, 29] was > 100 µM, the IC (TGI) [24, 30] was > 100 µM and the GI50 [25, 29] was 4.07 µM. For the same compound, the IC (TGI) [25, 30] was > 100 µM, the GI50 [26, 29] was > 100 µM and the IC (TGI) [26, 30] was > 100 µM. For the same compound, the GI50 [27, 29] was 0.575 µM, the IC (TGI) [27, 30] was 2.45 µM and the GI50 [28, 29] was > 100 µM. The IC (TGI) [28, 30] was > 100 µM.
